For one compound, IC50 results are on record in patent publication US20230280220A1, “Benzimidazole Derivative Compounds and Uses Thereof” (Pfizer Inc., priority 2019, published 2023).

The IC50 is the concentration that inhibits the measured activity by half. Lower therefore signals greater potency.

This assay addresses ITK enzyme (ITK FL, N-Flag and C-His tagged) (Homo sapiens (Human), UniProt Q08881). Nature of the assay: ITK enzyme assay (IL-2-inducible T-cell kinase activity). The class given is biochemical. As to conditions: geometric mean of count n. The protocol: IL-2-Inducible T-Cell Kinase (ITK) Activity, IC50 (nM)
ITK activity was determined by measuring the effect of a test compound in an ITK enzyme assay.
1.0 M HEPES Buffer pH 7.5 solution was prepared as follows: 238.3 g HEPES free acid (Sigma) and 800 mL of water were combined, and the mixture was stirred until complete dissolution. The pH was adjusted to 7.5 via titration with 5N NaOH and the volume adjusted to 1000 mL. The solution was filtered and sterilized.
ITK assay buffer was prepared as follows: 50 mL of HPLC-grade water was treated with 2 mL of 1.0 M HEPES Buffer, 500 μL of 2% Gelatin (Sigma), 1.0 mL of aqueous MgCl2 solution (1.0 M), and 1.0 mL of aqueous glutathione solution (0.5 M), and the solution was mixed. The solution was brought to 99 mL in a graduated cylinder by addition of water and sterilized through a 0.2 μm filter. 0.1 mL of Brij-35™ Surfact-Amps™ Detergent Solution (10% w/v aqueous solution, ThermoFisher) and 1.0 mL of ATP (Teknova, 100 mM) were added and the solution was mixed.
The resulting solution was stored on ice. 30 Minutes prior to use, the enzyme solution was removed from ice and equilibrated to RT by incubation in a RT water bath.
Preparation of 4×ITK substrate solution was as follows: 50 mL of ITK assay buffer was treated with 100 μL of BTK peptide (China Peptide Company, 2 mM stock solution in DMSO). The tube was capped, mixed by gently inverting the tube, and then stored on ice. 30 Minutes prior to use, the substrate solution was removed from ice and equilibrated to RT by incubation in a RT water bath.
At the time of assay, 7.5 μL of the 1.33×ITK enzyme solution was added to plate wells containing 0.1 μL of varying concentrations of test compound in DMSO. The plate was incubated 30 min at RT. The plate wells were each treated with 2.5 uL of the 4×ITK substrate solution and the plate was sealed (TopSeal™, Perkin Elmer). The plate was spun at 1000 rpm for 30 sec and then incubated for 60 min at RT. The seal was removed, and each well was treated with 10 μL of Stop/Detect Buffer (20 mM HEPES pH 7.5, 0.01% gelatin, 1 nM LANCE PT66 (Perkin Elmer), 16.5 μg/ml Surelight APC (Perkin Elmer), 10 mM EDTA, 250 mM NaCl). The plate was again covered and was spun at 1000 rpm for 30 seconds. The plate was allowed to incubate overnight at RT and in a closed carrier to reduce dehydration. The seal was removed, and the fluorescence was read with a plate reader with an excitation wavelength of […] and an emission wavelength of 615 nm.

Chain of ITK enzyme (ITK FL, N-Flag and C-His tagged) (Q08881 whole entry): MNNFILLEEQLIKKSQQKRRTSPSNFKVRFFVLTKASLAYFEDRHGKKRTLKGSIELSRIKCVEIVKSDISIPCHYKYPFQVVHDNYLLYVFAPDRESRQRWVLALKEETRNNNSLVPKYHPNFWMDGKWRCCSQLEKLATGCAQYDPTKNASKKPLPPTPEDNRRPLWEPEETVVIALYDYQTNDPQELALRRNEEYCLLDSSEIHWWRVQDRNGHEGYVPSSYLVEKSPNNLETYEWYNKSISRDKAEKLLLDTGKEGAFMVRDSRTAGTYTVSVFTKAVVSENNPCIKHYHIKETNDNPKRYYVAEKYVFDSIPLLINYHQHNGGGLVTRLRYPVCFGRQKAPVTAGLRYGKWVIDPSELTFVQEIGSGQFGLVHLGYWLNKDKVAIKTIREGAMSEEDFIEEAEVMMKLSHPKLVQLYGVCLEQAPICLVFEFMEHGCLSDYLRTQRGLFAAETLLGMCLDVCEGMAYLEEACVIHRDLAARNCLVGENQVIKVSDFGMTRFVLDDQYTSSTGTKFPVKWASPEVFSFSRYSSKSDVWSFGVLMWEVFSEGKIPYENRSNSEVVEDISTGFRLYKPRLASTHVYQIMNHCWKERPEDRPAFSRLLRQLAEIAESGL

Compound `Cc1cc2[nH]c(-c3n[nH]c4c3C[C@@H]3C[C@]3(C)C4)nc2cc1N(C)C(=O)CN1CCO[C@@H](C)C1` [Example 31, N-Methyl-N-(6-methyl-2-((4aS,5aR)-5a-methyl-1,4,4a,5,5a,6-hexahydrocyclopropa[f]indazol-3-yl)-1H-benzo[d]imidazol-5-yl)-2-((S)-2-methylmorpholino)acetamide] returned an IC50 of 0.013 µM.
